What was measured:
[1] = Dose-limiting toxicity and maximum tolerated dose, phase I dose escalation; assay type: in vivo, human (patients with advanced solid tumors)
From the text: Dose-limiting toxicities (DLTs) in the study were defined as those related to treatment and occurring within the first 28 days of therapy. Hematologic DLTs were defined as afebrile grade 4 neutropenia for >5 days, grade 4 neutropenia associated with fever, or grade 4 thrombocytopenia. Non-hematological DLTs were defined as any ≥ grade 3 adverse event (AE) for >7 days that could not be controlled to grade ≤2 with appropriate treatment.
In part B (dose expansion) of the study, an additional 12 evaluable patients received treatment at the combination MTDs.

[2] = cited from earlier work
[3] = Plasma pharmacokinetics, each drug alone and in combination; conditions: selumetinib + dacarbazine arm
From the text: When more than one maximum occurred, the reported value was assigned to the first occurrence.

Pharmacokinetic parameters administered alone vs in combination [3]	Plasma concentration-time profiles administered alone vs in combination [3]	Structure (SMILES)	MTD of selumetinib ([1]; in combination with dacarbazine 1000 mg/m^2 every 21 days)	MTD of selumetinib ([1]; in combination with docetaxel 75 mg/m^2 every 21 days)	MTD of selumetinib ([1]; plus docetaxel with ppG-CSF, defined in part A)	recommended phase II dose of selumetinib ([1]; plus docetaxel without ppG-CSF)	MTD of selumetinib ([1]; with docetaxel 75 mg/m^2 without ppG-CSF)	recommended dose for selumetinib monotherapy ([2]; monotherapy)	monotherapy MTD ([2]; selumetinib monotherapy)	AUC(0–8) ([3]; plasma, dosed in combination, selumetinib 75 mg (N = 15), geometric mean (% CV))
		Cn1cnc2c(F)c(Nc3ccc(Br)cc3Cl)c(C(=O)NOCCO)cc21 [Selumetinib]	75 mg BID	75 mg BID	75 mg BID	75 mg BID	75 mg BID	75 mg twice daily (BID)	75 mg BID	4544 (45.42) ng•h/mL
similar	similar	CN(C)/N=N/c1[nH]cnc1C(N)=O [Dacarbazine]								

From paper PMC5340007 (BMC Cancer, 2017)
